# Results taken from ChEMBL document CHEMBL3885861, “Open TG-GATES”.
# Species on record: Rattus norvegicus
# Experiment: Open TG-GATES - Regimen: Daily Repeat
# Format: toxicity, organism-based, Sprague-Dawley
# Parameters: regimen Daily Repeat, gender Male, age 6 weeks
# Details: in vivo, po, route gavage; for Bas / Eos / Hb / Ht / Lym / MCH / MCHC / MCV / Mono / Neu / Plat / RBC / Ret / WBC: tissue Blood; for KIDNEY_L / KIDNEY_R / KIDNEY_TOTAL: tissue Kidney; for LIVER: tissue Liver; for A/G / ALP / ALT / AST / BUN / CRE / Ca / Cl / DBIL / GLC / IP / K / LDH / Na / PL / RALB / TBIL / TC / TG / TP / gamma-GTP: tissue Plasma
# [1] = 0 mg/kg, 72 h, dose level Control, time 3 day
# [2] = 0 mg/kg, […], dose level Control, time 7 day
# [3] = 0 mg/kg, […], dose level Control, time 14 day
# [4] = 0 mg/kg, […], dose level Control, time 28 day
# [5] = 300 mg/kg, 72 h, dose level Low, time 3 day
# [6] = 300 mg/kg, […], dose level Low, time 7 day
# [7] = 300 mg/kg, […], dose level Low, time 14 day
# [8] = 300 mg/kg, […], dose level Low, time 28 day
smiles,measurement,setting,value
CC(N)=O [ACETAMIDE],TERMINAL_BW,[1],236.7 g
same,Bas,[1],0%
same,Eos,[1],1%
same,Hb,[1],13.1 g/dL
same,Ht,[1],40.5%
same,Lym,[1],71.4%
same,MCH,[1],20 pg
same,MCHC,[1],32.4%
same,MCV,[1],61.6 fL
same,Mono,[1],3.6%
same,Neu,[1],23%
same,Plat,[1],126.3 x10_4/uL
same,RBC,[1],658.2 x10_4/ul
same,Ret,[1],7.1%
same,WBC,[1],126.7 x10_2/uL
same,KIDNEY_L,[1],1 g
same,KIDNEY_R,[1],1 g
same,KIDNEY_TOTAL,[1],2 g
same,LIVER,[1],11.1 g
same,A/G,[1],1
same,ALP,[1],1741.8 IU/L
same,ALT,[1],39.8 IU/L
same,AST,[1],71.6 IU/L
same,BUN,[1],15.2 mg/dL
same,CRE,[1],0.1 mg/dL
same,Ca,[1],10.7 mg/dL
same,Cl,[1],105.6 meq/L
same,DBIL,[1],0.004 mg/dL
same,GLC,[1],196 mg/dL
same,IP,[1],6.7 mg/dL
same,K,[1],4.4 meq/L
same,LDH,[1],180.4 IU/L
same,Na,[1],140.9 meq/L
same,PL,[1],162.6 mg/dL
same,RALB,[1],2.8 g/dL
same,TBIL,[1],0.002 mg/dL
same,TC,[1],85.2 mg/dL
same,TG,[1],108.8 mg/dL
same,TP,[1],5.6 g/dL
same,gamma-GTP,[1],0.8 IU/L
same,TERMINAL_BW,[2],276.9 g
same,TERMINAL_BW,[3],335.4 g
same,TERMINAL_BW,[4],415.6 g
same,Bas,[2],0%
same,Eos,[2],1%
same,Hb,[2],12.7 g/dL
same,Ht,[2],38.9%
same,Lym,[2],75.2%
same,MCH,[2],19.9 pg
same,MCHC,[2],32.7%
same,MCV,[2],60.8 fL
same,Mono,[2],3.2%
same,Neu,[2],19.8%
same,Plat,[2],131.8 x10_4/uL
same,RBC,[2],640.2 x10_4/ul
same,Ret,[2],6.7%
same,WBC,[2],130.3 x10_2/uL
same,Bas,[3],0%
same,Eos,[3],1%
same,Hb,[3],13.4 g/dL
same,Ht,[3],40.3%
same,Lym,[3],79.8%
same,MCH,[3],19.6 pg
same,MCHC,[3],33.2%
same,MCV,[3],58.9 fL
same,Mono,[3],3%
same,Neu,[3],15.2%
same,Plat,[3],119.7 x10_4/uL
same,RBC,[3],685.6 x10_4/ul
same,Ret,[3],5.2%
same,WBC,[3],124.3 x10_2/uL
same,Bas,[4],0%
same,Eos,[4],1%
same,Hb,[4],13.5 g/dL
same,Ht,[4],41.1%
same,Lym,[4],82.2%
same,MCH,[4],18.5 pg
same,MCHC,[4],32.8%
same,MCV,[4],56.3 fL
same,Mono,[4],2.2%
same,Neu,[4],14.2%
same,Plat,[4],99.3 x10_4/uL
same,RBC,[4],729.2 x10_4/ul
same,Ret,[4],4.1%
same,WBC,[4],118.1 x10_2/uL
same,KIDNEY_L,[2],1.1 g
same,KIDNEY_R,[2],1.2 g
same,KIDNEY_TOTAL,[2],2.3 g
same,KIDNEY_L,[3],1.3 g
same,KIDNEY_R,[3],1.3 g
same,KIDNEY_TOTAL,[3],2.6 g
same,KIDNEY_L,[4],1.4 g
same,KIDNEY_R,[4],1.4 g
same,KIDNEY_TOTAL,[4],2.8 g
same,LIVER,[2],12.8 g
same,LIVER,[3],14.7 g
same,LIVER,[4],16 g
same,A/G,[2],0.9
same,ALP,[2],1570 IU/L
same,ALT,[2],38.2 IU/L
same,AST,[2],64.2 IU/L
same,BUN,[2],16.1 mg/dL
same,CRE,[2],0.2 mg/dL
same,Ca,[2],10.5 mg/dL
same,Cl,[2],103.4 meq/L
same,DBIL,[2],0 mg/dL
same,GLC,[2],195.2 mg/dL
same,IP,[2],6.6 mg/dL
same,K,[2],4.7 meq/L
same,LDH,[2],164.6 IU/L
same,Na,[2],140.6 meq/L
same,PL,[2],148.6 mg/dL
same,RALB,[2],2.8 g/dL
same,TBIL,[2],0 mg/dL
same,TC,[2],72.6 mg/dL
same,TG,[2],135.5 mg/dL
same,TP,[2],5.7 g/dL
same,gamma-GTP,[2],0.7 IU/L
same,A/G,[3],0.9
same,ALP,[3],1394.4 IU/L
same,ALT,[3],33.2 IU/L
same,AST,[3],64.6 IU/L
same,BUN,[3],17.9 mg/dL
same,CRE,[3],0.2 mg/dL
same,Ca,[3],10.4 mg/dL
same,Cl,[3],103.5 meq/L
same,DBIL,[3],0 mg/dL
same,GLC,[3],196.6 mg/dL
same,IP,[3],6.6 mg/dL
same,K,[3],4.2 meq/L
same,LDH,[3],170.6 IU/L
same,Na,[3],141.6 meq/L
same,PL,[3],156 mg/dL
same,RALB,[3],2.7 g/dL
same,TBIL,[3],0 mg/dL
same,TC,[3],72 mg/dL
same,TG,[3],191.9 mg/dL
same,TP,[3],5.8 g/dL
same,gamma-GTP,[3],0.8 IU/L
same,A/G,[4],0.8
same,ALP,[4],983.4 IU/L
same,ALT,[4],34.2 IU/L
same,AST,[4],64.6 IU/L
same,BUN,[4],16.3 mg/dL
same,CRE,[4],0.2 mg/dL
same,Ca,[4],10.3 mg/dL
same,Cl,[4],103.9 meq/L
same,DBIL,[4],0.004 mg/dL
same,GLC,[4],204.8 mg/dL
same,IP,[4],6.3 mg/dL
same,K,[4],4.1 meq/L
same,LDH,[4],179.6 IU/L
same,Na,[4],142.3 meq/L
same,PL,[4],133.2 mg/dL
same,RALB,[4],2.7 g/dL
same,TBIL,[4],0.002 mg/dL
same,TC,[4],60.2 mg/dL
same,TG,[4],133.7 mg/dL
same,TP,[4],6 g/dL
same,gamma-GTP,[4],0.9 IU/L
same,TERMINAL_BW,[5],239.9 g
same,Bas,[5],0%
same,Eos,[5],0.8%
same,Hb,[5],12.4 g/dL
same,Ht,[5],38.3%
same,Lym,[5],75.8%
same,MCH,[5],20.5 pg
same,MCHC,[5],32.5%
same,MCV,[5],63 fL
same,Mono,[5],3.4%
same,Neu,[5],19.4%
same,Plat,[5],135.2 x10_4/uL
same,RBC,[5],608.2 x10_4/ul
same,Ret,[5],8.2%
same,WBC,[5],104.5 x10_2/uL
same,KIDNEY_L,[5],1 g
same,KIDNEY_R,[5],1 g
same,KIDNEY_TOTAL,[5],2.1 g
same,LIVER,[5],11.3 g
same,A/G,[5],1
same,ALP,[5],2008.8 IU/L
same,ALT,[5],36.4 IU/L
same,AST,[5],65.4 IU/L
same,BUN,[5],17.6 mg/dL
same,CRE,[5],0.1 mg/dL
same,Ca,[5],10.8 mg/dL
same,Cl,[5],103.4 meq/L
same,DBIL,[5],0.002 mg/dL
same,GLC,[5],184.6 mg/dL
same,IP,[5],6.6 mg/dL
same,K,[5],4.5 meq/L
same,LDH,[5],138.4 IU/L
same,Na,[5],139.5 meq/L
same,PL,[5],157.2 mg/dL
same,RALB,[5],2.8 g/dL
same,TBIL,[5],0.006 mg/dL
same,TC,[5],80.4 mg/dL
same,TG,[5],137.5 mg/dL
same,TP,[5],5.5 g/dL
same,gamma-GTP,[5],0.8 IU/L
same,TERMINAL_BW,[6],271.7 g
same,TERMINAL_BW,[7],327.7 g
same,TERMINAL_BW,[8],432.9 g
same,Bas,[6],0%
same,Eos,[6],0.8%
same,Hb,[6],12.5 g/dL
same,Ht,[6],38.3%
same,Lym,[6],76.4%
same,MCH,[6],19.8 pg
same,MCHC,[6],32.7%
same,MCV,[6],60.6 fL
same,Mono,[6],3.4%
same,Neu,[6],18.4%
same,Plat,[6],115.7 x10_4/uL
same,RBC,[6],631.6 x10_4/ul
same,Ret,[6],6.4%
same,WBC,[6],120.4 x10_2/uL
same,Bas,[7],0%
same,Eos,[7],1%
same,Hb,[7],13.2 g/dL
same,Ht,[7],39.9%
same,Lym,[7],76.8%
same,MCH,[7],19.6 pg
same,MCHC,[7],33.2%
same,MCV,[7],59.2 fL
same,Mono,[7],2.8%
same,Neu,[7],19%
same,Plat,[7],105.9 x10_4/uL
same,RBC,[7],674.2 x10_4/ul
same,Ret,[7],4.8%
same,WBC,[7],126.4 x10_2/uL
same,Bas,[8],0%
same,Eos,[8],1%
same,Hb,[8],14.1 g/dL
same,Ht,[8],42.1%
same,Lym,[8],77.8%
same,MCH,[8],19.1 pg
same,MCHC,[8],33.5%
same,MCV,[8],57.1 fL
same,Mono,[8],2.4%
same,Neu,[8],17.8%
same,Plat,[8],111 x10_4/uL
same,RBC,[8],737.8 x10_4/ul
same,Ret,[8],3.2%
same,WBC,[8],165 x10_2/uL
same,KIDNEY_L,[6],1.1 g
same,KIDNEY_R,[6],1.1 g
same,KIDNEY_TOTAL,[6],2.2 g
same,KIDNEY_L,[7],1.3 g
same,KIDNEY_R,[7],1.3 g
same,KIDNEY_TOTAL,[7],2.6 g
same,KIDNEY_L,[8],1.5 g
same,KIDNEY_R,[8],1.5 g
same,KIDNEY_TOTAL,[8],3 g
same,LIVER,[6],12.8 g
same,LIVER,[7],14.1 g
same,LIVER,[8],17.3 g
same,A/G,[6],0.9
same,ALP,[6],1504 IU/L
same,ALT,[6],39.4 IU/L
same,AST,[6],73.4 IU/L
same,BUN,[6],19.4 mg/dL
same,CRE,[6],0.2 mg/dL
same,Ca,[6],10.5 mg/dL
same,Cl,[6],104.1 meq/L
same,DBIL,[6],0 mg/dL
same,GLC,[6],187.4 mg/dL
same,IP,[6],6.3 mg/dL
same,K,[6],4.7 meq/L
same,LDH,[6],205.8 IU/L
same,Na,[6],141.3 meq/L
same,PL,[6],149.6 mg/dL
same,RALB,[6],2.8 g/dL
same,TBIL,[6],0 mg/dL
same,TC,[6],72 mg/dL
same,TG,[6],141.8 mg/dL
same,TP,[6],5.8 g/dL
same,gamma-GTP,[6],0.5 IU/L
same,A/G,[7],0.9
same,ALP,[7],1341.2 IU/L
same,ALT,[7],34.4 IU/L
same,AST,[7],68.6 IU/L
same,BUN,[7],17.7 mg/dL
same,CRE,[7],0.2 mg/dL
same,Ca,[7],10.4 mg/dL
same,Cl,[7],104.9 meq/L
same,DBIL,[7],0 mg/dL
same,GLC,[7],197.4 mg/dL
same,IP,[7],6.3 mg/dL
same,K,[7],4.4 meq/L
same,LDH,[7],244 IU/L
same,Na,[7],141.1 meq/L
same,PL,[7],147.4 mg/dL
same,RALB,[7],2.8 g/dL
same,TBIL,[7],0.002 mg/dL
same,TC,[7],71.2 mg/dL
same,TG,[7],132 mg/dL
same,TP,[7],5.8 g/dL
same,gamma-GTP,[7],0.7 IU/L
same,A/G,[8],0.9
same,ALP,[8],1160.4 IU/L
same,ALT,[8],41.2 IU/L
same,AST,[8],75.8 IU/L
same,BUN,[8],20.1 mg/dL
same,CRE,[8],0.2 mg/dL
same,Ca,[8],10.5 mg/dL
same,Cl,[8],104.1 meq/L
same,DBIL,[8],0.004 mg/dL
same,GLC,[8],211.2 mg/dL
same,IP,[8],6.3 mg/dL
same,K,[8],4.3 meq/L
same,LDH,[8],256 IU/L
same,Na,[8],141.8 meq/L
same,PL,[8],158.6 mg/dL
same,RALB,[8],2.8 g/dL
same,TBIL,[8],0 mg/dL
same,TC,[8],77 mg/dL
same,TG,[8],175.1 mg/dL
same,TP,[8],6 g/dL
same,gamma-GTP,[8],0.9 IU/L
